Literature values, collected in patent US20250312247A1, “OXYGEN GENERATING FACE MASKS” (DERMOQ, INC., priority 2018, published 2025).

Conditions: topically applied dissolved oxygen, transcutaneous

SMILES: O=O [dissolved oxygen, oxygen]
- depth of penetration through human skin: > 700 μm
